This is an account of results in ChEMBL document CHEMBL1146856, “Novel, orally bioavailable gamma-aminoamide CC chemokine receptor 2 (CCR2) antagonists” (J Med Chem, 2006).

Molecules are shown by their SMILES.

Broadly, the IC50 is the concentration that inhibits the measured activity by half. A higher IC50 goes with weaker potency in that assay. As usually defined, the inhibition is the drop in the measured response relative to a control, in per cent. Read a low inhibition as a response near the control. In general, bioavailability refers to the share of a dose that reaches the circulation, judged against a reference dose that is usually intravenous. A high value points to much systemic uptake. What is called clearance is the rate of elimination divided by the concentration. Low readings indicate inefficient removal, high ones efficient removal. As usually defined, the half-life is how long it takes for the measured level to halve. High values mean slow loss, low ones fast loss.

Data set [1] has as its target T1, C-C chemokine receptor type 2 (Homo sapiens, UniProt P41597). The experiment in a line: Inhibition of [125I]MCP1 binding to CCR2 expressed in CHO cells. Type of data set: cell-based.
Target sequence in this assay (P41597 whole entry): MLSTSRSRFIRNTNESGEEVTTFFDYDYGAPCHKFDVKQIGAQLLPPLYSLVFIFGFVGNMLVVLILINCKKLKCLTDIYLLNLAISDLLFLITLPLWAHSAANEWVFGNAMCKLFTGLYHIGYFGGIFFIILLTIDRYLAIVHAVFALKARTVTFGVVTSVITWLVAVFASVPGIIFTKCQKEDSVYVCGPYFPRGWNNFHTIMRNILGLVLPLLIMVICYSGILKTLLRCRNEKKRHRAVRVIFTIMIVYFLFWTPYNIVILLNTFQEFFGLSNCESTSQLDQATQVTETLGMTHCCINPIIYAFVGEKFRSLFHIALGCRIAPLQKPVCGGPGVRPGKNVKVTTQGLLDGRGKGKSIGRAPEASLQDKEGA
Data set [2] deals with T1, C-C chemokine receptor type 2. The experiment in a line: Inhibition of [125I]MCP1 binding to CCR2 expressed in CHO cells at 1 uM. It counts as cell-based.
Target sequence in this assay (P41597 whole entry, looked up): as the sequence (P41597 whole entry) above
In data set [3] the test system is Monocyte. The experiment in a line: Inhibition of MCP1-stimulated chemotaxis of human monocyte. It counts as functional, cell-based.
The target of data set [4] is T2, C-C chemokine receptor type 5 (Homo sapiens, UniProt P51681). Put plainly: Inhibition of CCR5 at 0.01 uM.
Target sequence in this assay (P51681 whole entry, looked up): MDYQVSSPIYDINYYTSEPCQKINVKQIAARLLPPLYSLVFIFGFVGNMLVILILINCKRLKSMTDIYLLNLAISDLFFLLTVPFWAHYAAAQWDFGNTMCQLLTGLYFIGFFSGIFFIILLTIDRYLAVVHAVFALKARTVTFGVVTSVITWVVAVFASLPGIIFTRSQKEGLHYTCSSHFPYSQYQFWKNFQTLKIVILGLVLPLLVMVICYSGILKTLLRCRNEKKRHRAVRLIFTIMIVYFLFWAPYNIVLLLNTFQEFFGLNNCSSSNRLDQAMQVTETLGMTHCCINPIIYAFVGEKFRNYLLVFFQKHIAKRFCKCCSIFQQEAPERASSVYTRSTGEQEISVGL
Data set [5] concerns the target Substance-P receptor (Homo sapiens, UniProt P25103). Put plainly: Inhibition of NK1.
Data set [6] deals with T2, C-C chemokine receptor type 5. Put plainly: Inhibition of CCR5.
Target sequence in this assay (P51681 whole entry): as the sequence (P51681 whole entry, looked up) above
Data set [7] concerns Monocyte. The experiment in a line: Inhibition of MCP1-stimulated chemotaxis of human monocyte at 1 uM. It counts as functional.
The nature of data set [8]: Oral bioavailability in rat at 3 mg/kg. Type of data set: ADME, organism-based. The conditions noted are these: in vivo.
Data set [9] is described as follows: Plasma clearance in rat at 3 mg/kg. Details: dose 3 mg/kg. Type of data set: ADME, organism-based.
A short description of data set [10]: Half life in rat at 3 mg/kg. Type of data set: ADME, organism-based. The conditions noted are these: in vivo. On the set-up: dose 3 mg/kg.

Chain of Substance-P receptor (P25103 whole entry): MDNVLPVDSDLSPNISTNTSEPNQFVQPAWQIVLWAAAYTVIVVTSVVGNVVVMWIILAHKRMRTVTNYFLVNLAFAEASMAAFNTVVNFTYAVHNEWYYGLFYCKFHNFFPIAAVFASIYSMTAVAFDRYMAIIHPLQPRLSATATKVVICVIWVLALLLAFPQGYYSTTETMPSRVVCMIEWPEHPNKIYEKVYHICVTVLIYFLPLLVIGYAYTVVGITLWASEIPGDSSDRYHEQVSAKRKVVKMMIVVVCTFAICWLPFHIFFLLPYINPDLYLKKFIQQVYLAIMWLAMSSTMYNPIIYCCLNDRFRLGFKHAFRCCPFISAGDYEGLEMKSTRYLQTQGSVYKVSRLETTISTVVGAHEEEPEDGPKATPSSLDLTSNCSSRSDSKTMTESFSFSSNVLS

Turning to `O=C(NCc1cc(C(F)(F)F)cc(C(F)(F)F)c1)[C@@H](CCN1CCC2(CCc3ccccc32)CC1)c1ccc(F)cc1`, in data set [1], the IC50 came out at 320 nM.
For `O=C(NCc1cc(C(F)(F)F)cc(C(F)(F)F)c1)[C@@H](CCN1CCCC(c2ccccc2)CC1)c1ccc(F)cc1` (stereo not given in full), in data set [2], the inhibition came out at 3%.
`O=C(NCc1cc(C(F)(F)F)cc(C(F)(F)F)c1)[C@H](CCN1CCC(c2ccccc2)CC1)c1ccc(F)cc1`: the IC50 in data set [1] came to 930 nM.
Same read-out and setting: then `O=C(NCc1cc(C(F)(F)F)cc(C(F)(F)F)c1)[C@@H](CCCN1CCCCC1)c1ccc(F)cc1`, with 1000 nM.
`O=C(NCc1cc(C(F)(F)F)cc(C(F)(F)F)c1)[C@@H](CCN1CC[C@@H]2c3ccccc3CC[C@H]2C1)c1ccc(F)cc1`: the inhibition in [2] stood at 6%.
The same measure, in the same setting: then `C=CCN1CCC(N(CC[C@H](C(=O)NCc2cc(C(F)(F)F)cc(C(F)(F)F)c2)c2ccc(F)cc2)C(=O)OCc2ccccc2)CC1`, with 14%.
`CC(C[C@H](C(=O)NCc1cc(C(F)(F)F)cc(C(F)(F)F)c1)c1ccc(F)cc1)N1CCC(c2ccccc2)CC1` (stereo not given in full) showed an IC50 in data set [1] of 1500 nM.
The same measure, in the same setting: then `CC1CN(CC[C@H](C(=O)NCc2cc(C(F)(F)F)cc(C(F)(F)F)c2)c2ccc(F)cc2)CCN1c1ccccc1` (stereo not given in full), with 780 nM.
`O=C(NCc1cc(C(F)(F)F)cc(C(F)(F)F)c1)[C@@H](CCN1CCC(c2ccccc2)C1)c1ccc(F)cc1` (stereo not given in full) gave an inhibition in [2] of 44%.
In [1], `O=C(NCc1cc(C(F)(F)F)cc(C(F)(F)F)c1)[C@@H](CCN1CCC(c2ccsc2)CC1)c1ccc(F)cc1` gave an IC50 of 160 nM.
With `O=C(NCc1cc(C(F)(F)F)cc(C(F)(F)F)c1)[C@@H](CCN1CC(c2ccccc2)C1)c1ccc(F)cc1`, the inhibition in data set [2] worked out at 18%.
Molecule `C[C@@H]1CN(CC[C@H](CNCc2cc(C(F)(F)F)cc(C(F)(F)F)c2)c2ccc(F)cc2)CC[C@@H]1c1ccccc1` came in with an IC50 in [1] of 700 nM.
In data set [1], `O=C(NCc1cc(C(F)(F)F)cc(C(F)(F)F)c1)[C@@H](CCN1CCCCC1)c1ccc(F)cc1` had an IC50 of 1100 nM.
For the molecule `C[C@H]1CN(CC[C@H](CNCc2cc(C(F)(F)F)cc(C(F)(F)F)c2)c2ccc(F)cc2)CC[C@@H]1c1ccccc1`, the IC50 in data set [1] came out at 140 nM.
On to `C[C@@H]1CN(CC[C@H](C(=O)NCc2cc(C(F)(F)F)cc(C(F)(F)F)c2)c2ccc(F)cc2)CC[C@]12C=Cc1ccccc12`, for which the results for the IC50 in data set [1] and in data set [3] were 120 nM and 62 nM, respectively.
For the molecule `CN(C)CCN[C@H](C(=O)NCc1cc(C(F)(F)F)cc(C(F)(F)F)c1)c1ccc(F)cc1`, the IC50 in data set [1] came to 720 nM.
For the molecule `O=C(NCc1cc(C(F)(F)F)cc(C(F)(F)F)c1)[C@@H](CCN1CCN(c2ccccc2)CC1)c1ccc(F)cc1`, the inhibition in [2] was found to be 11%.
Consider `CC(CN1CCC(c2ccccc2)CC1)[C@H](CNCc1cc(C(F)(F)F)cc(C(F)(F)F)c1)c1ccc(F)cc1` (stereo not given in full), for which the inhibition in [2] worked out at 0%.
In [1], `CC1CN(CC[C@H](C(=O)NCc2cc(C(F)(F)F)cc(C(F)(F)F)c2)c2ccc(F)cc2)CCC12C=Cc1ccccc12` (stereo not given in full) displayed an IC50 of 45 nM.
With `C[C@H]1CN(CC[C@H](C(=O)NCc2cc(C(F)(F)F)cc(C(F)(F)F)c2)c2ccc(F)cc2)CC[C@@]12C=Cc1ccccc12`, the IC50 in data set [1] was 59 nM; in data set [5] it was 28 nM; in data set [3], 41 nM. In data set [4], this molecule came in with an inhibition of 26%.
Turning to `O=C(NCc1cc(C(F)(F)F)cc(C(F)(F)F)c1)[C@@H](CCN1CCC(c2ccccc2)CC1)c1ccc(F)cc1`, the IC50 in data set [1] is 150 nM; in data set [5] it was 24 nM; in [6] it was 72 nM. In data set [7], this molecule yielded an inhibition at 1 µM of 40%.
Molecule `O=C(NCc1cc(C(F)(F)F)cc(C(F)(F)F)c1)[C@@H](CCCN1CCC(c2ccccc2)CC1)c1ccc(F)cc1` registered an IC50 in [1] of 1100 nM.
In turn, `O=C(NCc1cc(C(F)(F)F)cc(C(F)(F)F)c1)[C@@H](CCN1CCC(C2CCCCC2)CC1)c1ccc(F)cc1` showed an inhibition in [2] of 20%.
Same read-out and setting: then `O=C(NCc1cc(C(F)(F)F)cc(C(F)(F)F)c1)[C@@H](CCN1CCCC(Cc2ccccc2)C1)c1ccc(F)cc1` (stereo not given in full), with 43%.
In [1], `CCC1CN(CC[C@H](C(=O)NCc2cc(C(F)(F)F)cc(C(F)(F)F)c2)c2ccc(F)cc2)CCC12C=Cc1ccccc12` (stereo not given in full) yielded an IC50 of 440 nM.
`C[C@](CCN1CCC(c2ccccc2)CC1)(CNCc1cc(C(F)(F)F)cc(C(F)(F)F)c1)c1ccc(F)cc1` returned an IC50 in [1] of 1070 nM.
Turning to `O=C(NCc1cc(C(F)(F)F)cc(C(F)(F)F)c1)[C@@H](CCN1CCC2(C=Cc3ccccc32)CC1)c1ccc(F)cc1`, the IC50 came out at 80 nM in [1], 50 nM in data set [5], 30 nM in data set [6] and 176 nM in data set [3]. In [8], this molecule displayed a bioavailability of 38%. Also, the clearance in [9] is 6 mL/min/kg. The molecule also showed a half-life in data set [10] of 8 h.
